# Values of other authors as cited in publication PMC8513935.
# Experiment: derived by the authors as gas->solvent minus gas->water (a hypothetical dry solvent; the ESI), not a two-phase measurement
# Conditions: 2-Methylpropan-1-ol, 25 C
row,"log K of transfer, water to solvent [log10 K]",SMILES
1,2.16,CCCOCCC
2,4.21,c1ccc2c(c1)ccc1ccccc12

row,SMILES,"log K of transfer, water to solvent [log10 K]"
1,CCCl,1.32

# Same assay, conditions: 2-Methylpropan-2-ol, 25 C
row,"log K of transfer, water to solvent [log10 K]",SMILES
1,2.13,CCCOCCC
2,4.2,c1ccc2c(c1)ccc1ccccc12

row,SMILES,"log K of transfer, water to solvent [log10 K]"
1,CCCl,1.33

# Same assay, conditions: 3-Methylbutan-1-ol, 25 C
row,SMILES,"log K of transfer, water to solvent [log10 K]"
1,CCCl,1.32
2,c1ccc2c(c1)ccc1ccccc12,4.33

# Same assay, conditions: Acetone, 25 C
row,"log K of transfer, water to solvent [log10 K]",SMILES
1,5.46,c1ccc2c(c1)ccc1ccccc12

# Same assay, conditions: Acetonitrile, 25 C
row,"log K of transfer, water to solvent [log10 K]",SMILES
1,4.93,c1ccc2c(c1)ccc1ccccc12

# Same assay, conditions: Butan-1-ol, 25 C
row,"log K of transfer, water to solvent [log10 K]",SMILES
1,2.13,CCCOCCC
2,4.45,c1ccc2c(c1)ccc1ccccc12

row,SMILES,"log K of transfer, water to solvent [log10 K]"
1,CCCl,1.37

# Same assay, conditions: Butan-2-ol, 25 C
row,"log K of transfer, water to solvent [log10 K]",SMILES
1,2.14,CCCOCCC
2,4.27,c1ccc2c(c1)ccc1ccccc12

row,SMILES,"log K of transfer, water to solvent [log10 K]"
1,CCCl,1.31

# Same assay, conditions: Butanone, 25 C
row,"log K of transfer, water to solvent [log10 K]",SMILES
1,2.3,CCCOCCC
2,5.47,c1ccc2c(c1)ccc1ccccc12

# Same assay, conditions: Butyronitrile, 25 C
row,"log K of transfer, water to solvent [log10 K]",SMILES
1,5.39,c1ccc2c(c1)ccc1ccccc12

# Same assay, conditions: CCl4, 25 C
row,"log K of transfer, water to solvent [log10 K]",SMILES
1,2.64,CCCOCCC
2,5.25,c1ccc2c(c1)ccc1ccccc12

# Same assay, conditions: Chlorobenzene, 25 C
row,SMILES,"log K of transfer, water to solvent [log10 K]"
1,CCCl,1.71

# Same assay, conditions: Chloroform, 25 C
row,"log K of transfer, water to solvent [log10 K]",SMILES
1,5.06,c1ccc2c(c1)ccc1ccccc12

# Same assay, conditions: Cyclohexane, 25 C
row,"log K of transfer, water to solvent [log10 K]",SMILES
1,4.61,c1ccc2c(c1)ccc1ccccc12

# Same assay, conditions: Cyclohexanone, 25 C
row,"log K of transfer, water to solvent [log10 K]",SMILES
1,5.53,c1ccc2c(c1)ccc1ccccc12

# Same assay, conditions: Di-n-butyl ether, 25 C
row,"log K of transfer, water to solvent [log10 K]",SMILES
1,4.92,c1ccc2c(c1)ccc1ccccc12

# Same assay, conditions: Dichloromethane, 25 C
row,"log K of transfer, water to solvent [log10 K]",SMILES
1,2.78,CCCOCCC

# Same assay, conditions: Ethanol, 25 C
row,"log K of transfer, water to solvent [log10 K]",SMILES
1,4.56,c1ccc2c(c1)ccc1ccccc12

# Same assay, conditions: Heptan-1-ol, 25 C
row,"log K of transfer, water to solvent [log10 K]",SMILES
1,4.61,c1ccc2c(c1)ccc1ccccc12

# Same assay, conditions: Hexadecane, 25 C
row,"log K of transfer, water to solvent [log10 K]",SMILES
1,2.05,CCCOCCC
2,4.83,c1ccc2c(c1)ccc1ccccc12

row,SMILES,"log K of transfer, water to solvent [log10 K]"
1,CCCl,1.22

# Same assay, conditions: Hexan-1-ol, 25 C
row,"log K of transfer, water to solvent [log10 K]",SMILES
1,2.12,CCCOCCC

# Same assay, conditions: Hexane, 25 C
row,SMILES,"log K of transfer, water to solvent [log10 K]"
1,CCCl,1.45
2,c1ccc2c(c1)ccc1ccccc12,4.55

# Same assay, conditions: Methanol, 25 C
row,"log K of transfer, water to solvent [log10 K]",SMILES
1,1.99,CCCOCCC
2,4.44,c1ccc2c(c1)ccc1ccccc12

row,SMILES,"log K of transfer, water to solvent [log10 K]"
1,CCCl,1.47

# Same assay, conditions: Octan-1-ol(dry), 25 C
row,"log K of transfer, water to solvent [log10 K]",SMILES
1,2.07,CCCOCCC
2,4.72,c1ccc2c(c1)ccc1ccccc12

# Same assay, conditions: Pentan-1-ol, 25 C
row,SMILES,"log K of transfer, water to solvent [log10 K]"
1,CCCl,1.35
2,c1ccc2c(c1)ccc1ccccc12,4.53

# Same assay, conditions: Perfluoroalkane, 25 C
row,"log K of transfer, water to solvent [log10 K]",SMILES
1,1.18,CCCOCCC

# Same assay, conditions: Propan-1-ol, 25 C
row,SMILES,"log K of transfer, water to solvent [log10 K]"
1,CCCl,1.4
2,c1ccc2c(c1)ccc1ccccc12,4.5

# Same assay, conditions: Propan-2-ol, 25 C
row,"log K of transfer, water to solvent [log10 K]",SMILES
1,2.05,CCCOCCC
2,4.27,c1ccc2c(c1)ccc1ccccc12

row,SMILES,"log K of transfer, water to solvent [log10 K]"
1,CCCl,1.35

# Same assay, conditions: Propionitrile, 25 C
row,"log K of transfer, water to solvent [log10 K]",SMILES
1,5.34,c1ccc2c(c1)ccc1ccccc12

# Same assay, conditions: Tetrahydrofuran, 25 C
row,"log K of transfer, water to solvent [log10 K]",SMILES
1,5.62,c1ccc2c(c1)ccc1ccccc12

# Experiment: log P octanol/water from commercial databases, averaged (the ESI)
# Conditions: Octanol (wet), 25 C
row,"log K of transfer, water to solvent [log10 K]",SMILES
1,2.03,CCCOCCC
2,4.49,c1ccc2c(c1)ccc1ccccc12

row,SMILES,"log K of transfer, water to solvent [log10 K]"
1,CCCl,1.43

# Experiment: experimental, compiled by the authors from the literature (the ESI cites the sources)
# Conditions: 2-Methylpropan-1-ol, 25 C
row,"log K of transfer, gas to solvent [log10 K]",SMILES
1,3.06,CCCOCCC
2,7.01,c1ccc2c(c1)ccc1ccccc12

row,SMILES,"log K of transfer, gas to solvent [log10 K]"
1,CCCl,1.78

# Same assay, conditions: 2-Methylpropan-2-ol, 25 C
row,"log K of transfer, gas to solvent [log10 K]",SMILES
1,3.03,CCCOCCC
2,7,c1ccc2c(c1)ccc1ccccc12

row,SMILES,"log K of transfer, gas to solvent [log10 K]"
1,CCCl,1.79

# Same assay, conditions: 3-Methylbutan-1-ol, 25 C
row,SMILES,"log K of transfer, gas to solvent [log10 K]"
1,CCCl,1.78
2,c1ccc2c(c1)ccc1ccccc12,7.13

# Same assay, conditions: Acetonitrile, 25 C
row,"log K of transfer, gas to solvent [log10 K]",SMILES
1,7.73,c1ccc2c(c1)ccc1ccccc12

# Same assay, conditions: Butan-1-ol, 25 C
row,"log K of transfer, gas to solvent [log10 K]",SMILES
1,3.03,CCCOCCC
2,7.25,c1ccc2c(c1)ccc1ccccc12

row,SMILES,"log K of transfer, gas to solvent [log10 K]"
1,CCCl,1.83

# Same assay, conditions: Butan-2-ol, 25 C
row,"log K of transfer, gas to solvent [log10 K]",SMILES
1,3.04,CCCOCCC
2,7.07,c1ccc2c(c1)ccc1ccccc12

row,SMILES,"log K of transfer, gas to solvent [log10 K]"
1,CCCl,1.77

# Same assay, conditions: Butanone, 25 C
row,"log K of transfer, gas to solvent [log10 K]",SMILES
1,3.2,CCCOCCC
2,8.27,c1ccc2c(c1)ccc1ccccc12

# Same assay, conditions: Butyronitrile, 25 C
row,"log K of transfer, gas to solvent [log10 K]",SMILES
1,8.19,c1ccc2c(c1)ccc1ccccc12

# Same assay, conditions: CCl4, 25 C
row,"log K of transfer, gas to solvent [log10 K]",SMILES
1,3.54,CCCOCCC
2,8.05,c1ccc2c(c1)ccc1ccccc12

# Same assay, conditions: Chlorobenzene, 25 C
row,SMILES,"log K of transfer, gas to solvent [log10 K]"
1,CCCl,2.17

# Same assay, conditions: Chloroform, 25 C
row,"log K of transfer, gas to solvent [log10 K]",SMILES
1,7.86,c1ccc2c(c1)ccc1ccccc12

# Same assay, conditions: Cyclohexane, 25 C
row,"log K of transfer, gas to solvent [log10 K]",SMILES
1,7.41,c1ccc2c(c1)ccc1ccccc12

# Same assay, conditions: Cyclohexanone, 25 C
row,"log K of transfer, gas to solvent [log10 K]",SMILES
1,8.33,c1ccc2c(c1)ccc1ccccc12

# Same assay, conditions: Di-n-butyl ether, 25 C
row,"log K of transfer, gas to solvent [log10 K]",SMILES
1,7.72,c1ccc2c(c1)ccc1ccccc12

# Same assay, conditions: Dichloromethane, 25 C
row,"log K of transfer, gas to solvent [log10 K]",SMILES
1,3.68,CCCOCCC

# Same assay, conditions: Ethanol, 25 C
row,"log K of transfer, gas to solvent [log10 K]",SMILES
1,7.36,c1ccc2c(c1)ccc1ccccc12

# Same assay, conditions: Heptan-1-ol, 25 C
row,"log K of transfer, gas to solvent [log10 K]",SMILES
1,7.41,c1ccc2c(c1)ccc1ccccc12

# Same assay, conditions: Hexadecane, 25 C
row,"log K of transfer, gas to solvent [log10 K]",SMILES
1,2.95,CCCOCCC
2,7.63,c1ccc2c(c1)ccc1ccccc12

row,SMILES,"log K of transfer, gas to solvent [log10 K]"
1,CCCl,1.68

# Same assay, conditions: Hexan-1-ol, 25 C
row,"log K of transfer, gas to solvent [log10 K]",SMILES
1,3.02,CCCOCCC

# Same assay, conditions: Hexane, 25 C
row,SMILES,"log K of transfer, gas to solvent [log10 K]"
1,CCCl,1.91
2,c1ccc2c(c1)ccc1ccccc12,7.35

# Same assay, conditions: Methanol, 25 C
row,"log K of transfer, gas to solvent [log10 K]",SMILES
1,2.89,CCCOCCC
2,7.24,c1ccc2c(c1)ccc1ccccc12

row,SMILES,"log K of transfer, gas to solvent [log10 K]"
1,CCCl,1.93

# Same assay, conditions: Octan-1-ol, 25 C
row,"log K of transfer, gas to solvent [log10 K]",SMILES
1,2.97,CCCOCCC
2,7.52,c1ccc2c(c1)ccc1ccccc12

# Same assay, conditions: Pentan-1-ol, 25 C
row,SMILES,"log K of transfer, gas to solvent [log10 K]"
1,CCCl,1.81
2,c1ccc2c(c1)ccc1ccccc12,7.33

# Same assay, conditions: Perfluoroalkane, 25 C
row,"log K of transfer, gas to solvent [log10 K]",SMILES
1,2.08,CCCOCCC

# Same assay, conditions: Propan-1-ol, 25 C
row,SMILES,"log K of transfer, gas to solvent [log10 K]"
1,CCCl,1.86
2,c1ccc2c(c1)ccc1ccccc12,7.3

# Same assay, conditions: Propan-2-ol, 25 C
row,"log K of transfer, gas to solvent [log10 K]",SMILES
1,2.95,CCCOCCC
2,7.07,c1ccc2c(c1)ccc1ccccc12

row,SMILES,"log K of transfer, gas to solvent [log10 K]"
1,CCCl,1.81

# Same assay, conditions: Propanone, 25 C
row,"log K of transfer, gas to solvent [log10 K]",SMILES
1,8.26,c1ccc2c(c1)ccc1ccccc12

# Same assay, conditions: Propionitrile, 25 C
row,"log K of transfer, gas to solvent [log10 K]",SMILES
1,8.14,c1ccc2c(c1)ccc1ccccc12

# Same assay, conditions: Tetrahydrofuran, 25 C
row,"log K of transfer, gas to solvent [log10 K]",SMILES
1,8.42,c1ccc2c(c1)ccc1ccccc12

# Same assay, conditions: Water, 25 C
row,"log K of transfer, gas to solvent [log10 K]",SMILES
1,0.9,CCCOCCC
2,2.8,c1ccc2c(c1)ccc1ccccc12

row,SMILES,"log K of transfer, gas to solvent [log10 K]"
1,CCCl,0.46
